Measured values published in patent publication US5288723A, “A composition and a method of using veratridine and epinephrine as a local anesthetic” (priority 1991, dated 1994).
“Also recorded” adds a separate entry of the source.

Columns and labels:
[1] = Toxic signs (salivation) in rats after sciatic nerve injection; assay type: in vivo, Male Sprague-Dawley rats; details: co-injection of VTD with EPI
Procedure: Male Sprague-Dawley rats (200-250 g) were divided into 4 groups of 10 each. 0.1 ml of VTD alone at 0.2, 0.5 or 0.7 mM or vehicle (saline) was injected at the depression between the femoral head and the hip. The same animals were injected with VTD with epinephrine (EPI, 1:200,000) one week later, using the previously uninjected leg. Motor and sensory functions were rated by the respective monitoring of toe curling and/or foot dragging, and by testing the nocifensive withdrawal reflex to pinch of the foot pad of the injected hindlimb. Saline alone affected neither function.

[2] = system: rat sciatic nerve; experiment: Motor block of rat sciatic nerve in vivo (toe curling and/or foot dragging); parameters: species or system Male Sprague-Dawley rats
[3] = system: rat sciatic nerve; experiment: Sensory block of rat sciatic nerve in vivo (nocifensive withdrawal reflex to pinch of the foot pad); parameters: species or system Male Sprague-Dawley rats; details: 2%=74 mM

Compound: CNC[C@H](O)c1ccc(O)c(O)c1 [EPI, epinephrine]
- Effect of EPI co-injection on VTD toxicity [1]: decrease VTD-associated toxicity; also recorded: decreases the toxicity associated with higher concentrations of VTD

Compound: CCCCN1CCCCC1C(=O)Nc1c(C)cccc1C (stereo not shown) [bupivacaine]
- Motor blockade duration ([2]; 0.75%=23 mM): 161 min
- Motor blockade onset ([2]; 0.75%=23 mM): 4.8 min
- Motor blockade, % of rats tested ([2]; 0.75%=23 mM): 86%
- Motor blockade, fraction of rats tested ([2]; 0.75%=23 mM): 205/239

Compound: CCN(CC)CC(=O)Nc1c(C)cccc1C [lidocaine]
- Sensory blockade duration [3]: 78 min
- Sensory blockade onset [3]: 1.3 min
- Sensory blockade, % of rats [3]: 100%
- Sensory blockade, fraction of rats [3]: 5/5
- Motor blockade duration ([2]; 2%=74 mM): 75 min
- Motor blockade onset ([2]; 2%=74 mM): 1.9 min
- Motor blockade, % of rats ([2]; 2%=74 mM): 96%
- Motor blockade, fraction of rats ([2]; 2%=74 mM): 216/224
